Experimental findings from ChEMBL document CHEMBL1201862, “PubChem BioAssay data set” (2004) are described below.

Test systems include SK-MEL-2; RXF 393; MDA-N; HT-29; DU-145; PC-3; OVCAR-3; MCF7; 786-0; A549; HOP-92; HCT-15; SF-539; MDA-MB-231; OVCAR-8; SF-295; K562; Malme-3M; RPMI-8226.
Holding throughout (test): growth of human tumour cells (NCI), 48 h

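Compound exposure: 48 hours, 5 concentrations, 96-well plates. At the GI50, growth is halved.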 Active and inactive are the calls of the source. Rule as the data show it: active = GI50 up to about 1.1 µM and inactive = higher. Some results are limits rather than exact numbers.

In the case of `COC(=O)c1ccccc1CC1Cc2cccc(C)c2C1=O` (centres undefined), the GI50 in the experiment on SK-MEL-2 is 21.8 µM (inactive); in the experiment on RXF 393, 24.7 µM (inactive); in the experiment on MDA-N, 36.1 µM (inactive); in the experiment with HT-29, 22.9 µM (inactive); with DU-145 it was 96.4 µM (inactive); in the experiment with PC-3, 24 µM (inactive). For the same molecule, the GI50 with OVCAR-3 was 33.7 µM (inactive); in the experiment on MCF7, 26.6 µM (inactive); in the experiment with 786-0, 47.5 µM (inactive); with A549, 51.8 µM (inactive); in the experiment with HOP-92 it was 23.8 µM (inactive); in the experiment on HCT-15, 24 µM. For the same molecule, the GI50 with SF-539 was 89.7 µM (inactive); with MDA-MB-231 it was 51.5 µM (inactive); with OVCAR-8, 35 µM (inactive); in the experiment with SF-295 it was 38.9 µM (inactive); in the experiment on K562 it was 22.3 µM (inactive); in the experiment on Malme-3M, 19.2 µM (inactive).
For `O=C1Oc2cc(O)cc(/C=C/c3ccc(O)cc3)c2[C@@]12c1c(O)cc(O)cc1OC2c1cccc(O)c1` (some centres undefined), the GI50 in the experiment with SK-MEL-2 is 24.2 µM (inactive); in the experiment with RXF 393, 34.6 µM (inactive); in the experiment with MDA-N it was 26.1 µM (inactive); in the experiment with HT-29, 29.2 µM (inactive); with DU-145, 39 µM (inactive); with PC-3 it was 30.9 µM (inactive). Moreover, the GI50 was 61.2 µM (inactive) with OVCAR-3; 39.1 µM (inactive) with MCF7; 24.5 µM (inactive) in the experiment with 786-0; 54 µM (inactive) in the experiment on A549; 31.2 µM (inactive) with HOP-92; 83.4 µM in the experiment with HCT-15. Also, the GI50 with SF-539 is 31.8 µM (inactive); in the experiment with MDA-MB-231 it was 26.4 µM (inactive); in the experiment with RPMI-8226 it was 13.4 µM (inactive); in the experiment on OVCAR-8, 41.2 µM (inactive); in the experiment with SF-295 it was 32.2 µM (inactive); in the experiment with K562, 39.8 µM (inactive). Further, in the experiment with Malme-3M, the GI50 was 33.4 µM (inactive).
As for `O=C1/C(=C/c2cccc(Oc3ccccc3)c2)N=C(c2ccccc2)N1c1nc2ccc(Sc3ccccc3)cc2[nH]1`, the GI50 in the experiment on SK-MEL-2 is 17.3 µM (inactive); in the experiment on RXF 393 it was 24.8 µM (inactive); with MDA-N, 16 µM (inactive); in the experiment with HT-29, 23.5 µM (inactive); in the experiment with DU-145 it was 27.3 µM (inactive); in the experiment with PC-3 it was 29.9 µM (inactive). The GI50 was 15.8 µM (inactive) in the experiment on OVCAR-3; 27.7 µM (inactive) with MCF7; 32.3 µM (inactive) in the experiment with 786-0; 42.1 µM (inactive) in the experiment with A549; 58.7 µM (inactive) in the experiment on HOP-92; 28 µM with HCT-15. In addition, the GI50 in the experiment with MDA-MB-231 is 19.8 µM (inactive); in the experiment on RPMI-8226, 20.5 µM (inactive); in the experiment on OVCAR-8, 29.9 µM (inactive); with SF-295, 19.7 µM (inactive); in the experiment with K562, 23.7 µM (inactive); in the experiment on Malme-3M, 67.8 µM (inactive).
Take `N=S(c1ccccc1[N+](=O)[O-])c1ccccc1[N+](=O)[O-]`: the GI50 is 3.9 µM (inactive) in the experiment on SK-MEL-2; 2.69 µM (inactive) in the experiment on RXF 393; 1.36 µM (inactive) in the experiment with MDA-N; 2.64 µM (inactive) with DU-145; 1.46 µM (inactive) in the experiment with PC-3; 0.839 µM (active) in the experiment with OVCAR-3. The GI50 in the experiment on MCF7 was 0.129 µM (active); in the experiment on 786-0, 1.38 µM (inactive); in the experiment with A549, 4.45 µM (inactive); in the experiment with HOP-92, 1.89 µM (inactive); in the experiment with HCT-15 it was 0.912 µM; in the experiment with SF-539, 3.13 µM (inactive). The GI50 is 1.77 µM (inactive) in the experiment on MDA-MB-231, 1.14 µM (inactive) with RPMI-8226, 2.14 µM (inactive) in the experiment with OVCAR-8 and 2.72 µM (inactive) in the experiment with Malme-3M.
Take `NC(=O)C(c1ccccc1)N1OC2C(=O)N(c3cccc4ccccc34)C(=O)C2C1c1c2ccccc2c(Cl)c2ccccc12` (centres undefined): the GI50 was 8.69 µM (inactive) in the experiment with SK-MEL-2; 6.81 µM (inactive) in the experiment with RXF 393; 2.38 µM (inactive) in the experiment with MDA-N; 7.53 µM (inactive) with HT-29; 14.5 µM (inactive) in the experiment on DU-145; 6.98 µM (inactive) with PC-3. For the same molecule, the GI50 was 7.91 µM (inactive) with OVCAR-3; 2.85 µM (inactive) in the experiment on MCF7; 10.2 µM (inactive) in the experiment with 786-0; 13.9 µM (inactive) with A549; 9.27 µM (inactive) in the experiment on HOP-92; 4.21 µM in the experiment with HCT-15. The GI50 in the experiment with SF-539 was 5.24 µM (inactive); with MDA-MB-231 it was 9.25 µM (inactive); in the experiment on OVCAR-8 it was 9.29 µM (inactive); in the experiment on SF-295 it was 9.75 µM (inactive); in the experiment with K562, 8.15 µM (inactive); in the experiment on Malme-3M, 11.6 µM (inactive).
Regarding `CC(C)(C)CC(C)(C)c1cc(O)c(O)c(CN2CCCCC2)c1`, the GI50 was 12.8 µM (inactive) with RXF 393; 15.1 µM (inactive) in the experiment with MDA-N; 5.69 µM (inactive) in the experiment on HT-29; 14.5 µM (inactive) with DU-145; 13.9 µM (inactive) in the experiment with PC-3; 14.7 µM (inactive) in the experiment with OVCAR-3. For the same molecule, the GI50 with MCF7 was 12.5 µM (inactive); with 786-0, 13.4 µM (inactive); in the experiment with A549, 17.1 µM (inactive); in the experiment on HOP-92 it was 17.5 µM (inactive); with HCT-15, 4.01 µM; with MDA-MB-231 it was 17.7 µM (inactive). In addition, the GI50 was 12.8 µM (inactive) with RPMI-8226; 15.6 µM (inactive) in the experiment with OVCAR-8; 17.5 µM (inactive) in the experiment on SF-295; 4.25 µM (inactive) in the experiment with K562; 12.8 µM (inactive) in the experiment on Malme-3M.
In the case of `Cc1cn(CC2=NCC(C)(C)N2)c(=O)[nH]c1=O`, the GI50 in the experiment on SK-MEL-2, with RXF 393, in the experiment on MDA-N, in the experiment with HT-29, in the experiment on DU-145 and with PC-3 was > 100 µM (inactive) each time. Moreover, the GI50 in the experiment with MCF7 is > 100 µM (inactive); in the experiment on 786-0 it was > 100 µM (inactive); in the experiment with A549, > 100 µM (inactive); with HOP-92 it was > 100 µM (inactive); in the experiment with HCT-15, above 100 µM; in the experiment with MDA-MB-231 it was > 100 µM (inactive). Also, the GI50 with RPMI-8226, in the experiment on OVCAR-8, with SF-295, with K562 and in the experiment on Malme-3M was > 100 µM (inactive) in each case.
With `O=C(Cn1c(=O)oc2ccc(C(=O)c3ccc(F)cc3)cc21)c1ccc([N+](=O)[O-])cc1`, the GI50 in the experiment on SK-MEL-2 was 20.2 µM (inactive); in the experiment on RXF 393, 27.3 µM (inactive); in the experiment on MDA-N, 21 µM (inactive); in the experiment with HT-29, 39 µM (inactive); in the experiment on DU-145, 46.7 µM (inactive); in the experiment with PC-3, 22.5 µM (inactive). The GI50 with MCF7 is 31.7 µM (inactive); in the experiment with 786-0, 33 µM (inactive); with A549, 37.1 µM (inactive); in the experiment with HOP-92 it was 49.3 µM (inactive); in the experiment with HCT-15, 20.9 µM; in the experiment on SF-539, 41.1 µM (inactive). Further, the GI50 was 28.9 µM (inactive) in the experiment on MDA-MB-231; 22.2 µM (inactive) in the experiment with RPMI-8226; 25.8 µM (inactive) with OVCAR-8; 28.3 µM (inactive) in the experiment with K562; 31.8 µM (inactive) in the experiment with Malme-3M.
Take `CCOC(=O)c1c(-c2ccc(OC)cc2)c(C#N)c(=S)n(C2OC(CO)C(O)C(O)C2O)c1-c1ccccc1` (centres undefined): the GI50 was 31.3 µM (inactive) with SK-MEL-2; 26.2 µM (inactive) in the experiment on RXF 393; 33.2 µM (inactive) with MDA-N; 40.6 µM (inactive) in the experiment with HT-29; 48.4 µM (inactive) in the experiment with DU-145; 35.6 µM (inactive) with PC-3. Further, the GI50 with OVCAR-3 was 24.6 µM (inactive); in the experiment on MCF7, 39.4 µM (inactive); in the experiment with 786-0 it was 48.2 µM (inactive); in the experiment with A549 it was > 100 µM (inactive); in the experiment on HOP-92 it was 6.85 µM (inactive); with HCT-15, 56 µM. In addition, the GI50 is 38.1 µM (inactive) with SF-539; 36 µM (inactive) in the experiment with MDA-MB-231; 46.9 µM (inactive) in the experiment with RPMI-8226; 44.9 µM (inactive) in the experiment with SF-295; 34.4 µM (inactive) in the experiment on K562; 73.5 µM (inactive) in the experiment with Malme-3M.
As for `O=C(NCCN(CCNC(=O)c1cccc(O)c1O)CCNC(=O)c1cccc(O)c1O)c1cccc(O)c1O` [TRENCAM], the GI50 was 33.2 µM (inactive) in the experiment on SK-MEL-2; 7.87 µM (inactive) in the experiment with RXF 393; 9.31 µM (inactive) in the experiment on MDA-N; 5.31 µM (inactive) in the experiment on HT-29; 6.98 µM (inactive) in the experiment with DU-145; 11.4 µM (inactive) in the experiment with PC-3. The GI50 with OVCAR-3 was 2.69 µM (inactive); in the experiment on MCF7 it was 9.55 µM (inactive); in the experiment on 786-0, 5.89 µM (inactive); in the experiment on A549, 15 µM (inactive); in the experiment on HOP-92, 7.53 µM (inactive); with HCT-15 it was 10.4 µM. Moreover, the GI50 in the experiment with SF-539 was 3.85 µM (inactive); in the experiment with MDA-MB-231, 6.07 µM (inactive); with OVCAR-8, 3.15 µM (inactive); in the experiment on SF-295, 25.4 µM (inactive); in the experiment with K562, 5.28 µM (inactive); in the experiment with Malme-3M, 2.51 µM (inactive).
On to `CCCCSC1=N/C(=C\c2ccc(N(C)C)cc2)C(=O)N1`, for which the GI50 is 30 µM (inactive) with RXF 393; 33.6 µM (inactive) in the experiment with MDA-N; 11.9 µM (inactive) in the experiment on HT-29; 60.1 µM (inactive) in the experiment on DU-145; 0.256 µM (active) in the experiment with PC-3; 27 µM (inactive) with OVCAR-3. Besides, the GI50 in the experiment on MCF7 is 30.5 µM (inactive); in the experiment on 786-0, 17.9 µM (inactive); in the experiment on A549 it was 17.3 µM (inactive); in the experiment with HOP-92 it was 27.3 µM (inactive); in the experiment with HCT-15, 53.5 µM; in the experiment with SF-539, 24.5 µM (inactive). In addition, the GI50 in the experiment with MDA-MB-231 was 24 µM (inactive); with RPMI-8226, 16.7 µM (inactive); in the experiment with OVCAR-8, 54.1 µM (inactive); in the experiment with SF-295 it was 28.4 µM (inactive); in the experiment with K562 it was 44.8 µM (inactive); with Malme-3M, 38.4 µM (inactive).
